Here are results for 38 compounds from patent publication US7452997B2 (priority 2004, dated 2008).

Test [1] deals with T1, human CB1 receptor (Homo sapiens, UniProt P21554).
T1 construct: expressed in transfected cells; host or cells: SK-N-MC cells, stably transfected with pcDNA3 CB-1 (human); semi-purified membrane pellet
In words: biochemical. The class given is binding. Summed up:
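Membranes from SK-N-MC cells stably expressing human CB1, incubated 90 minutes at 30° C in Tris-HCl buffer with MgCl2, EDTA and fatty acid free BSA, pH 7.5. Bound counts collected by filtration and scintillation counting; IC50 from linear regression over varying compound concentrations.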

The target in test [2] is T2, human CB2 receptor (Homo sapiens, UniProt P34972). The test is described as follows: Binding assay, cannabinoid CB2 receptor ([3H]-CP-55,940 displacement). Particulars: Cannabinoid CB2 Receptor Binding IC50, human CB2 receptor, SK-N-MC cell membranes, radioligand CP-55,940 0.2 nM. Summed up:
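Membranes from SK-N-MC cells stably expressing human CB2, incubated with test compound and 0.2 nM [3H]-CP-55,940 for 90 min at 30 °C in Tris buffer pH 7.5 with fatty-acid-free BSA. Nonspecific binding defined with 10 uM WIN 55,212; filtration and scintillation counting, IC50 by linear regression.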

Test [3] concerns the target T2, human CB2 receptor. The test is described as follows: Functional cell-based assay, CB2 receptor mediated change in CRE β-gal expression (agonist / inverse agonist). Particulars: SK-N-MC cells, forskolin. The source says: Functional Cell-Based Assay for CB1 or CB2 Agonist and Inverse Agonist Effects on Intra-Cellular Adenylate Cyclase Activity
The CB1 and CB2 receptors are G-protein coupled receptors (GPCR) which influence cell function via the Gi-protein. These receptors modulate the activity of intracellular adenylate cyclase which in turn produces the intracellular signal messenger cyclic-AMP (cAMP).
At baseline, or during non-ligand bound conditions, these receptors are constitutively active and tonically suppress adenylate cyclase activity. The binding of an agonists causes further receptor activation and produces additional suppression of adenylate cyclase activity. The binding of an inverse agonist inhibits the constitutive activity of the receptors and results in an increase in adenylate cyclase activity.
By monitoring intracellular adenylate cyclase activity, the ability of compounds to act as agonists or inverse agonists can be determined.
Test compounds were evaluated in SK-N-MC cells which, using standard transfection procedures, were stably transfected with human cDNA for pcDNA3-CRE β-gal and pcDNA3 CB1 receptor (human) or pcDNA3 CB2 receptor (human). By expressing CRE β-gal, the cells produced β-galactosidase in response to CRE promoter activation by cAMP. Cells expressing CRE β-gal and either the human CB1 or CB2 receptor will produce less β-galactosidase when treated with a CB1/CB2 agonist and will produce more β-galactosidase when treated with a CB1/CB2 inverse agonist.
The cells were grown in 96-well plates under standard cell culture conditions at 37° C. in a 5% CO2 atmosphere. After 3 days, the media was removed and a test compound in media (wherein the media was supplemented with 2 mM L-glutamine, […] sodium pyruvate, 0.1% low fatty acid FBS (fetal bovine serum) and antibiotics) was added to the cell. The plates were incubated for 30 minutes at 37° C. and the plate cells were then treated with forskolin over a 4-6 hour period, then washed and lysed. The β-galactosidase activity was quantitated using commercially available kit reagents (Promega Corp. Madison, Wis.) and a VMAX Plate Reader (Molecular Devices, Inc).
For cells expressing CRE β-gal and the CB2 receptor, CB2 agonists reduced β-galactosidase activity in a dose-dependent manner and CB2 inverse agonists increased β-galactosidase activity in a dose-dependent manner.
The change in β-galactosidase activity was determined by setting a vehicle treated cell's activity value at 100% and expressing the β-galactosidase activity measured in a corresponding compound treated cell as a percent of the vehicle treated cell activity.
The EC50 values for compounds tested were calculated by linear regression and were obtained from studies in which varying compound concentrations were used.

Where [4] appears, read: agonist, read-out: CB2 Receptor Functional Agonist EC50.
The mark [5] stands for this setting: inverse agonist, read-out: CB2 Receptor Functional Inverse Agonist EC50.

Each structure is given as a SMILES string. Read-outs that look alike come from different tables or passages of the source.

T1 sequence (P21554 whole entry): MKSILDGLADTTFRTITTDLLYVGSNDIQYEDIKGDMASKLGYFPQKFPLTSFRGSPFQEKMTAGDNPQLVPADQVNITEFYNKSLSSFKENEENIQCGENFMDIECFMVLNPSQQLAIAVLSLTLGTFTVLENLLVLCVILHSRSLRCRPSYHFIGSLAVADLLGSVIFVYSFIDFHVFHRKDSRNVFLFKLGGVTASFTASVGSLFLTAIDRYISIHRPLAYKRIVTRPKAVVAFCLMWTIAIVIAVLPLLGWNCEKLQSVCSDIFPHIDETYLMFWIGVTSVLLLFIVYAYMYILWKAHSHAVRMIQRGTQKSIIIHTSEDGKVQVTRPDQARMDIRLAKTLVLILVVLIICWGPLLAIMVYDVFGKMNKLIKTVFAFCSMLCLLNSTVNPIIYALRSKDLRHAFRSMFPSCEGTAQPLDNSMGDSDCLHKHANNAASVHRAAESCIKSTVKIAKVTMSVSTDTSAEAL
T2 sequence (P34972 whole entry): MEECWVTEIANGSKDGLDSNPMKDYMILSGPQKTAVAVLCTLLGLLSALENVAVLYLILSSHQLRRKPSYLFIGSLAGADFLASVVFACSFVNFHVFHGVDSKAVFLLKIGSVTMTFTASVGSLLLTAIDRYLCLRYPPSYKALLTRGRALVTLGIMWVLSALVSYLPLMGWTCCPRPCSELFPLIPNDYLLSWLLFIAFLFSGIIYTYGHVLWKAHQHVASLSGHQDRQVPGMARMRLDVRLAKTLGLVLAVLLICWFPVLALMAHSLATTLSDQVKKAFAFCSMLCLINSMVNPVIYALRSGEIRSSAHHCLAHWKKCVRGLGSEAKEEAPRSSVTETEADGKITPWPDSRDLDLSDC

Turning to `CCOC(=O)[C@@H]1C2CCC(C2)[C@@H]1NC(=O)c1nn(C2CCCCC2)c2c1CCCC2` (stereo partly shown) [compound 278], the IC50 – broadly, the midpoint of a concentration-inhibition curve – in test [1] worked out at 403 nM; in test [2] it was 37.5 nM. Besides, the EC50 (in general, the concentration at which the effect is half-maximal) in test [3] (setting [4]) was 0.78 nM.
The like results for `O=C(NC12CC3CC(CC(C3)C1)C2)c1nn(C2CCCCC2)c2c1CCCC2` [compound 44] were, in that order, 79 nM, 2.4 nM and 29 nM.
Consider `CC(=O)OC1CCc2c(c(C(=O)NC3C4(C)CCC(C4)C3(C)C)nn2C2CCCCC2)C1` (stereo not shown) [compound 94], for which the IC50 in test [1] was found to be 1780 nM; in test [2], 20 nM. Besides, the EC50 in test [3] (setting [4]) amounted to 25 nM.
The like results for `CC(NC(=O)c1nn(CC2CCCCC2)c2c1CCCC2)C12CC3CC(CC(C3)C1)C2` (stereo not shown) [compound 123] were, in that order, 7.5 nM, 4.6 nM and 7.5 nM.
Consider `CC(NC(=O)c1nn(C2CCCCC2)c2c1CCCC2)C1CCCCC1` (stereo not shown) [compound 184], for which the IC50 in test [1] came to 50 nM; in test [2], 20 nM. Moreover, the EC50 in test [3] (setting [4]) stood at 100 nM.
With `CCOC(=O)[C@@H]1CCc2c(c(C(=O)NC3C4CC5CC(C4)CC3C5)nn2Cc2ccccc2)C1` (stereo partly shown) [compound 211], the IC50 came out at 5 nM in test [1] and 0.7 nM in test [2]. The EC50 in test [3] (setting [5]) was found to be 16 nM.
On to `CC(NC(=O)c1nn(C2CCCCC2)c2c1CCCC2)C12CC3CC(CC(C3)C1)C2` (stereo not shown) [compound 26], for which the figures for the IC50 in test [1] and in test [2] were 723 nM and 15 nM, respectively. Also, the concentration giving a half-maximal response (EC50) in test [3] (setting [4]) worked out at 11 nM.
For `CC1CCCc2c(C(=O)NC3C4(C)CCC(C4)C3(C)C)nn(-c3ccc(F)cc3)c21` (stereo not shown) [compound 13], the values for the IC50 in test [1] and in test [2] were 108 nM and 6.5 nM, respectively. For the same compound, in test [3] (setting [4]), the EC50 came to 4.1 nM.
Take `CCOC(=O)[C@@H]1CCCC[C@@H]1NC(=O)c1nn(C2CCCCC2)c2c1CCCC2` [compound 36]: the IC50 was 105 nM in test [1] and 12.8 nM in test [2]. Also, in test [3] (setting [4]), the EC50 came to 5 nM.
As to `CC(C)OC(=O)C1CCc2c(c(C(=O)NC3C4CC5CC(C4)CC3C5)nn2C2CCCCC2)C1` (stereo not shown) [compound 232], the IC50 worked out at 2400 nM in test [1] and 30 nM in test [2]. Also, the EC50 in test [3] (setting [5]) amounted to 360 nM.
The corresponding values for `CCOC(=O)C1CCc2c(C(=O)N[C@H](C)C3CCCCC3)nn(C3CCCCC3)c2C1` (stereo partly shown) [compound 284] are 350 nM, 45 nM and 360 nM.
As for `C[C@@H](NC(=O)c1nn(C2CCCCC2)c2c1CCCC2)C1CCCCC1` [compound 195], the IC50 is 100 nM in test [1] and 20 nM in test [2]. In test [3] (setting [4]), the EC50 is 5.5 nM.
Take `CCOC(=O)[C@@H]1CCc2c(c(C(=O)NC(C)C34CC5CC(CC(C5)C3)C4)nn2C2CCCCC2)C1` (stereo partly shown) [compound 214]: the figures for the IC50 in test [1] and in test [2] were 1230 nM and 15.3 nM, respectively. Also, in test [3] (setting [5]), the EC50 is 120 nM.
The like results for `CCOC(=O)C1CCc2c(C(=O)NCC34CC5CC(CC(C5)C3)C4)nn(Cc3ccccc3)c2C1` (stereo not shown) [compound 156] were, in that order, 97 nM, 2 nM and 35 nM.
In the case of `O=C(NC1C2CC3CC(C2)CC1C3)c1nn(C2CCCCC2)c2c1CC(NC(=O)C(F)(F)F)CC2` (stereo not shown) [compound 87], the IC50 in test [1] amounted to 855 nM; in test [2] it was 26.6 nM. The EC50 in test [3] (setting [4]) came out at 250 nM.
For the compound `COC(=O)C1CCc2c(c(C(=O)NC3C4CC5CC(C4)CC3C5)nn2C2CCCCC2)C1` (stereo not shown) [compound 231], inhibition in test [1] was half-maximal at 638 nM (IC50). For the same compound, in test [3] (setting [5]), the EC50 came out at 35 nM.
In test [2], `CCOC(=O)C1CCc2c(c(C(=O)N[C@H](C)C3CCCCC3)nn2C2CCCCC2)C1` (stereo partly shown) [compound 251] returned an IC50 of 2.8 nM. The EC50 in test [3] (setting [5]) worked out at 23 nM.
`CCOC(=O)C1CCc2c(c(C(=O)NC(C)C34CC5CC(CC(C5)C3)C4)nn2-c2ccccc2)C1` (stereo not shown) [compound 116]: the IC50 in test [2] was 990 nM. In test [3] (setting [5]), the EC50 came out at 500 nM.
Take `CCOC(=O)[C@H]1CCc2c(c(C(=O)NC(C)C34CC5CC(CC(C5)C3)C4)nn2C2CCCCC2)C1` (stereo partly shown) [compound 215]: the IC50 in test [2] was 200 nM. The EC50 in test [3] (setting [5]) is 220 nM.
For the compound `COC(=O)C(Cc1cccc(OCc2ccccc2)c1)NC(=O)c1nn(-c2ccc(OC)cc2)c2c1CCCC2` (stereo not shown) [compound 3], the 50% inhibitory concentration (IC50) in test [2] was found to be 428 nM. Also, the EC50 in test [3] (setting [5]) was 190 nM.
Regarding `O=C(NC1C2CC3CC(C2)CC1C3)c1nn(C2CCCCC2)c2c1CC(NC(=O)N1CCOCC1)CC2` (stereo not shown) [compound 90], the IC50 amounted to 1840 nM in test [1] and 1120 nM in test [2].
`O=C(N[C@@H]1CCCC[C@H]1CO)c1nn(C2CCCCC2)c2c1CCCC2` [compound 49]: the values for the IC50 in test [1] and in test [2] were 150 nM and 72.8 nM, respectively.
As to `CCOC(=O)C1CCc2c(C(=O)NC3C4CC5CC(C4)CC3C5)nn(C3CCCCC3)c2C1` (stereo not shown) [compound 68], the IC50 in test [1] came out at 463 nM; in test [2], 57 nM.
On to `CC(c1ccccc1)n1nc(C(=O)NCC2CCCCC2)c2c1CCCC2` (stereo not shown) [compound 242], for which the results for the IC50 in test [1] and in test [2] were 300 nM and 1600 nM, respectively.
On to `O=C(CCc1nn(C2CCCCC2)c2c1CCCC2)N[C@@H]1C2CCC(C2)[C@@H]1CO` (stereo partly shown) [compound 52], for which the figures for the IC50 in test [1] and in test [2] were 6260 nM and 4900 nM, respectively.
For `O=C(NCC1CCCCC1)c1nn(C2CCCCC2)c2c1CCCC2` [Cpd 304, 1-cyclohexyl-4,5,6,7-tetrahydro-1H-indazole-3-carboxylic acid cyclohexylmethylamide], the IC50 turned out to be 160 nM in test [1] and 20 nM in test [2].
As for `CCOC(=O)[C@@H]1CCCC[C@@H]1NC(=O)c1c2c(nn1Cc1ccccc1)CCCC2` [compound 270], the IC50 in test [1] was determined as 3100 nM; in test [2] it was 1800 nM.
The corresponding values for `COC(=O)NC1CCc2c(c(C(=O)NC3C4CC5CC(C4)CC3C5)nn2C2CCCCC2)C1` (stereo not shown) [compound 88] are 2400 nM and 87 nM.
The corresponding values for `O=C(NCC12CC3CC(CC(C3)C1)C2)c1nn(-c2ccc(F)cc2)c2c1CCCC2CCc1ccccc1` (stereo not shown) [compound 152] are 340 nM and 200 nM.
`O=C(NC1C2CC3CC(C2)CC1C3)c1nn(C2CCCCC2)c2c1CC(C(=O)O)CC2` (stereo not shown) [Cpd 223, 3-(adamantan-2-ylcarbamoyl)-1-cyclohexyl-4,5,6,7-tetrahydro-1H-indazole-5-carboxylic acid]: the IC50 in test [1] was 170000 nM; in test [2], 2900 nM.
The corresponding values for `CCOC(=O)[C@@H]1CCCC[C@H]1NC(=O)c1nn(C2CCCCC2)c2c1CCCC2` [compound 269] are 191 nM and 38.6 nM.
In the case of `CCOC(=O)[C@H]1C2C=CC(C2)[C@H]1NC(=O)c1nn(C2CCCCC2)c2c1CCCC2` (stereo partly shown) [compound 279], the concentration for half-maximal inhibition (IC50) in test [1] turned out to be 3800 nM; in test [2], 830 nM.
The corresponding values for `CCOC(=O)C1CC=CCC1NC(=O)c1nn(Cc2ccccc2)c2c1CCCC2` (stereo not shown) [compound 119] are 6 nM and 10 nM.
The like results for `O=C(NC1CC2CCC1C2)c1nn(-c2ccc(F)cc2)c2c1CCCC2` (stereo not shown) [compound 20] were, in that order, 169 nM and 35.2 nM.
Take `CCC1CCCc2c(C(=O)NC3C4(C)CCC(C4)C3(C)C)nn(-c3ccc(F)cc3)c21` (stereo not shown) [compound 192]: the IC50 in test [1] worked out at 60 nM; in test [2] it was 2 nM.
As for `CC(NC(=O)c1nn(-c2ccc(Cl)cc2Cl)c2c1CCCC2)C12CC3CC(CC(C3)C1)C2` (stereo not shown) [compound 283], the IC50 in test [1] and in test [2] was 100 nM in each case.
Take `CC[C@@H](NC(=O)c1nn(C2CCCCC2)c2c1CCCC2)c1ccccc1` [compound 204]: the half-maximal inhibitory concentration (IC50) in test [1] was found to be 800 nM; in test [2], 10 nM.
As to `CCOC(=O)[C@H]1CCc2c(c(C(=O)NC3C4CC5CC(C4)CC3C5)nn2Cc2ccccc2)C1` (stereo partly shown) [compound 210], the IC50 was determined as 335 nM in test [1] and 8 nM in test [2].
